{"source": "PubChem BioAssay (NCI)", "experiment_in_all_cases": "growth of human tumour cells (NCI), 48 h", "key": {"[1]": {"tested_on": "786-0 renal"}, "[2]": {"tested_on": "A498 renal"}, "[3]": {"tested_on": "A549 NSCLC"}, "[4]": {"tested_on": "ACHN renal"}, "[5]": {"tested_on": "BT-549 breast"}, "[6]": {"tested_on": "CAKI-1 renal"}, "[7]": {"tested_on": "CCRF-CEM leukemia"}, "[8]": {"tested_on": "COLO 205 colon"}, "[9]": {"tested_on": "DU-145 prostate"}, "[10]": {"tested_on": "EKVX NSCLC"}, "[11]": {"tested_on": "HCC-2998 colon"}, "[12]": {"tested_on": "HCT-116 colon"}, "[13]": {"tested_on": "HCT-15 colon"}, "[14]": {"tested_on": "HL-60(TB) leukemia"}, "[15]": {"tested_on": "HOP-62 NSCLC"}, "[16]": {"tested_on": "HOP-92 NSCLC"}, "[17]": {"tested_on": "HS 578T breast"}, "[18]": {"tested_on": "HT29 colon"}, "[19]": {"tested_on": "IGROV1 ovarian"}, "[20]": {"tested_on": "KM12 colon"}, "[21]": {"tested_on": "LOX IMVI melanoma"}, "[22]": {"tested_on": "M14 melanoma"}, "[23]": {"tested_on": "MALME-3M melanoma"}, "[24]": {"tested_on": "MCF7 breast"}, "[25]": {"tested_on": "MDA-MB-231 breast"}, "[26]": {"tested_on": "MDA-MB-435"}, "[27]": {"tested_on": "NCI-H226 lung"}, "[28]": {"tested_on": "NCI-H23 lung"}, "[29]": {"tested_on": "NCI-H460 lung"}, "[30]": {"tested_on": "NCI-H522 lung"}, "[31]": {"tested_on": "NCI/ADR-RES ovarian"}, "[32]": {"tested_on": "OVCAR-4 ovarian"}, "[33]": {"tested_on": "OVCAR-5 ovarian"}, "[34]": {"tested_on": "OVCAR-8 ovarian"}, "[35]": {"tested_on": "PC-3 prostate"}, "[36]": {"tested_on": "RPMI-8226 leukemia"}, "[37]": {"tested_on": "RXF 393 renal"}, "[38]": {"tested_on": "SF-268 CNS"}, "[39]": {"tested_on": "SF-295 CNS"}, "[40]": {"tested_on": "SF-539 CNS"}, "[41]": {"tested_on": "SK-MEL-2 melanoma"}, "[42]": {"tested_on": "SK-MEL-28 melanoma"}, "[43]": {"tested_on": "SK-MEL-5 melanoma"}, "[44]": {"tested_on": "SK-OV-3 ovarian"}, "[45]": {"tested_on": "SN12C renal"}, "[46]": {"tested_on": "SNB-19 CNS"}, "[47]": {"tested_on": "SNB-75 CNS"}, "[48]": {"tested_on": "SW-620 colon"}, "[49]": {"tested_on": "T-47D breast"}, "[50]": {"tested_on": "TK-10 renal"}, "[51]": {"tested_on": "U251 CNS"}, "[52]": {"tested_on": "UACC-257 melanoma"}, "[53]": {"tested_on": "UACC-62 melanoma"}, "[54]": {"tested_on": "UO-31 renal"}}, "note": "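All cell lines were grown in 96-well plates and treated with compound for 48 hours. Here, GI50 denotes the concentration required for 50% inhibition of growth. TGI denotes the concentration required for complete inhibition of growth.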", "data": [{"smiles": "COc1ccccc1/C=C/C1=C(C)CCC(c2ccccc2OC)C1C", "note": "(stereo not given)", "values": [{"measurement": "GI50", "setting": "[1]", "result": 0.196, "unit": "µM"}, {"measurement": "TGI", "setting": "[1]", "result": 2.51, "unit": "µM"}, {"measurement": "GI50", "setting": "[2]", "result": 0.0923, "unit": "µM"}, {"measurement": "TGI", "setting": "[2]", "result": 0.534, "unit": "µM"}, {"measurement": "GI50", "setting": "[3]", "result": 0.223, "unit": "µM"}, {"measurement": "GI50", "setting": "[4]", "result": 0.272, "unit": "µM"}, {"measurement": "TGI", "setting": "[4]", "result": "> 100", "unit": "µM"}, {"measurement": "GI50", "setting": "[5]", "result": 0.27, "unit": "µM"}, {"measurement": "TGI", "setting": "[5]", "result": 1.73, "unit": "µM"}, {"measurement": "GI50", "setting": "[6]", "result": 0.157, "unit": "µM"}, {"measurement": "TGI", "setting": "[6]", "result": 7.69, "unit": "µM"}, {"measurement": "GI50", "setting": "[7]", "result": 0.0684, "unit": "µM"}, {"measurement": "TGI", "setting": "[7]", "result": "> 100", "unit": "µM"}, {"measurement": "GI50", "setting": "[8]", "result": 0.21, "unit": "µM"}, {"measurement": "TGI", "setting": "[8]", "result": 0.498, "unit": "µM"}, {"measurement": "GI50", "setting": "[9]", "result": 0.22, "unit": "µM"}, {"measurement": "TGI", "setting": "[9]", "result": 0.868, "unit": "µM"}, {"measurement": "GI50", "setting": "[10]", "result": 0.119, "unit": "µM"}, {"measurement": "TGI", "setting": "[10]", "result": "> 100", "unit": "µM"}, {"measurement": "GI50", "setting": "[11]", "result": 0.249, "unit": "µM"}, {"measurement": "TGI", "setting": "[11]", "result": 1.56, "unit": "µM"}, {"measurement": "GI50", "setting": "[12]", "result": 0.108, "unit": "µM"}, {"measurement": "TGI", "setting": "[12]", "result": 3.14, "unit": "µM"}, {"measurement": "GI50", "setting": "[13]", "result": 0.129, "unit": "µM"}, {"measurement": "TGI", "setting": "[13]", "result": "> 100", "unit": "µM"}, {"measurement": "GI50", "setting": "[14]", "result": 0.262, "unit": "µM"}, {"measurement": "TGI", "setting": "[14]", "result": 0.603, "unit": "µM"}, {"measurement": "GI50", "setting": "[15]", "result": 0.153, "unit": "µM"}, {"measurement": "TGI", "setting": "[15]", "result": 19.3, "unit": "µM"}, {"measurement": "GI50", "setting": "[16]", "result": 0.632, "unit": "µM"}, {"measurement": "TGI", "setting": "[16]", "result": "> 100", "unit": "µM"}, {"measurement": "GI50", "setting": "[17]", "result": 0.112, "unit": "µM"}, {"measurement": "TGI", "setting": "[17]", "result": 0.708, "unit": "µM"}, {"measurement": "GI50", "setting": "[18]", "result": 0.167, "unit": "µM"}, {"measurement": "GI50", "setting": "[19]", "result": 0.132, "unit": "µM"}, {"measurement": "TGI", "setting": "[19]", "result": "> 63.5", "unit": "µM"}, {"measurement": "GI50", "setting": "[20]", "result": 0.0879, "unit": "µM"}, {"measurement": "GI50", "setting": "[21]", "result": 0.184, "unit": "µM"}, {"measurement": "TGI", "setting": "[21]", "result": "> 56.8", "unit": "µM"}, {"measurement": "GI50", "setting": "[22]", "result": 0.16, "unit": "µM"}, {"measurement": "TGI", "setting": "[22]", "result": 0.655, "unit": "µM"}, {"measurement": "GI50", "setting": "[23]", "result": 11.9, "unit": "µM"}, {"measurement": "TGI", "setting": "[23]", "result": "> 100", "unit": "µM"}, {"measurement": "GI50", "setting": "[24]", "result": 0.0633, "unit": "µM"}, {"measurement": "TGI", "setting": "[24]", "result": 1.28, "unit": "µM"}, {"measurement": "GI50", "setting": "[25]", "result": 0.157, "unit": "µM"}, {"measurement": "TGI", "setting": "[25]", "result": 6.41, "unit": "µM"}, {"measurement": "GI50", "setting": "[26]", "result": 0.0595, "unit": "µM"}, {"measurement": "TGI", "setting": "[26]", "result": 0.154, "unit": "µM"}, {"measurement": "GI50", "setting": "[27]", "result": 0.223, "unit": "µM"}, {"measurement": "TGI", "setting": "[27]", "result": 0.627, "unit": "µM"}, {"measurement": "GI50", "setting": "[28]", "result": 0.188, "unit": "µM"}, {"measurement": "TGI", "setting": "[28]", "result": 13.6, "unit": "µM"}, {"measurement": "GI50", "setting": "[29]", "result": 0.278, "unit": "µM"}, {"measurement": "TGI", "setting": "[29]", "result": 1.27, "unit": "µM"}, {"measurement": "GI50", "setting": "[30]", "result": 0.113, "unit": "µM"}, {"measurement": "GI50", "setting": "[31]", "result": 0.105, "unit": "µM"}, {"measurement": "GI50", "setting": "[32]", "result": 1.37, "unit": "µM"}, {"measurement": "TGI", "setting": "[32]", "result": "> 100", "unit": "µM"}, {"measurement": "GI50", "setting": "[33]", "result": 0.403, "unit": "µM"}, {"measurement": "TGI", "setting": "[33]", "result": "> 68.2", "unit": "µM"}, {"measurement": "GI50", "setting": "[34]", "result": 0.137, "unit": "µM"}, {"measurement": "GI50", "setting": "[35]", "result": 0.392, "unit": "µM"}, {"measurement": "TGI", "setting": "[35]", "result": "> 100", "unit": "µM"}, {"measurement": "GI50", "setting": "[36]", "result": 0.0449, "unit": "µM"}, {"measurement": "TGI", "setting": "[36]", "result": "> 100", "unit": "µM"}, {"measurement": "GI50", "setting": "[37]", "result": 0.11, "unit": "µM"}, {"measurement": "GI50", "setting": "[38]", "result": 0.201, "unit": "µM"}, {"measurement": "TGI", "setting": "[38]", "result": "> 73", "unit": "µM"}, {"measurement": "GI50", "setting": "[39]", "result": "< 0.0201", "unit": "µM"}, {"measurement": "TGI", "setting": "[39]", "result": 1.53, "unit": "µM"}, {"measurement": "GI50", "setting": "[40]", "result": 0.0833, "unit": "µM"}, {"measurement": "TGI", "setting": "[40]", "result": 0.215, "unit": "µM"}, {"measurement": "GI50", "setting": "[41]", "result": 0.224, "unit": "µM"}, {"measurement": "TGI", "setting": "[41]", "result": "> 100", "unit": "µM"}, {"measurement": "GI50", "setting": "[42]", "result": 0.24, "unit": "µM"}, {"measurement": "TGI", "setting": "[42]", "result": "> 100", "unit": "µM"}, {"measurement": "GI50", "setting": "[43]", "result": 0.122, "unit": "µM"}, {"measurement": "TGI", "setting": "[43]", "result": 0.379, "unit": "µM"}, {"measurement": "GI50", "setting": "[44]", "result": 0.382, "unit": "µM"}, {"measurement": "TGI", "setting": "[44]", "result": "> 100", "unit": "µM"}, {"measurement": "GI50", "setting": "[45]", "result": 0.323, "unit": "µM"}, {"measurement": "TGI", "setting": "[45]", "result": "> 100", "unit": "µM"}, {"measurement": "GI50", "setting": "[46]", "result": 0.226, "unit": "µM"}, {"measurement": "TGI", "setting": "[46]", "result": "> 100", "unit": "µM"}, {"measurement": "GI50", "setting": "[47]", "result": 0.131, "unit": "µM"}, {"measurement": "TGI", "setting": "[47]", "result": 76.5, "unit": "µM"}, {"measurement": "GI50", "setting": "[48]", "result": 0.138, "unit": "µM"}, {"measurement": "TGI", "setting": "[48]", "result": "> 100", "unit": "µM"}, {"measurement": "GI50", "setting": "[49]", "result": 4.36, "unit": "µM"}, {"measurement": "TGI", "setting": "[49]", "result": "> 100", "unit": "µM"}, {"measurement": "GI50", "setting": "[50]", "result": 0.227, "unit": "µM"}, {"measurement": "TGI", "setting": "[50]", "result": 45.1, "unit": "µM"}, {"measurement": "GI50", "setting": "[51]", "result": 0.132, "unit": "µM"}, {"measurement": "TGI", "setting": "[51]", "result": 22.5, "unit": "µM"}, {"measurement": "TGI", "setting": "[52]", "result": "> 89.8", "unit": "µM"}, {"measurement": "GI50", "setting": "[53]", "result": 0.0684, "unit": "µM"}, {"measurement": "TGI", "setting": "[53]", "result": 40.3, "unit": "µM"}, {"measurement": "GI50", "setting": "[54]", "result": 0.371, "unit": "µM"}, {"measurement": "TGI", "setting": "[54]", "result": "> 100", "unit": "µM"}]}]}
